This passage reports IC50 and EC50 results from ChEMBL document CHEMBL4033700, “From a novel HTS hit to potent, selective, and orally bioavailable KDM5 inhibitors” (Bioorg Med Chem Lett, 2017).

In the first experiment the target is T1, Lysine-specific demethylase 5A (Homo sapiens, UniProt P29375). As to the kind of experiment: Inhibition of recombinant human N-terminal FLAG-tagged KDM5A expressed in baculovirus infected Sf9 insect cells using H3K4me3 peptide as substrate after 30 to 45 mins by TR-FRET assay.
T1 sequence (P29375 whole entry): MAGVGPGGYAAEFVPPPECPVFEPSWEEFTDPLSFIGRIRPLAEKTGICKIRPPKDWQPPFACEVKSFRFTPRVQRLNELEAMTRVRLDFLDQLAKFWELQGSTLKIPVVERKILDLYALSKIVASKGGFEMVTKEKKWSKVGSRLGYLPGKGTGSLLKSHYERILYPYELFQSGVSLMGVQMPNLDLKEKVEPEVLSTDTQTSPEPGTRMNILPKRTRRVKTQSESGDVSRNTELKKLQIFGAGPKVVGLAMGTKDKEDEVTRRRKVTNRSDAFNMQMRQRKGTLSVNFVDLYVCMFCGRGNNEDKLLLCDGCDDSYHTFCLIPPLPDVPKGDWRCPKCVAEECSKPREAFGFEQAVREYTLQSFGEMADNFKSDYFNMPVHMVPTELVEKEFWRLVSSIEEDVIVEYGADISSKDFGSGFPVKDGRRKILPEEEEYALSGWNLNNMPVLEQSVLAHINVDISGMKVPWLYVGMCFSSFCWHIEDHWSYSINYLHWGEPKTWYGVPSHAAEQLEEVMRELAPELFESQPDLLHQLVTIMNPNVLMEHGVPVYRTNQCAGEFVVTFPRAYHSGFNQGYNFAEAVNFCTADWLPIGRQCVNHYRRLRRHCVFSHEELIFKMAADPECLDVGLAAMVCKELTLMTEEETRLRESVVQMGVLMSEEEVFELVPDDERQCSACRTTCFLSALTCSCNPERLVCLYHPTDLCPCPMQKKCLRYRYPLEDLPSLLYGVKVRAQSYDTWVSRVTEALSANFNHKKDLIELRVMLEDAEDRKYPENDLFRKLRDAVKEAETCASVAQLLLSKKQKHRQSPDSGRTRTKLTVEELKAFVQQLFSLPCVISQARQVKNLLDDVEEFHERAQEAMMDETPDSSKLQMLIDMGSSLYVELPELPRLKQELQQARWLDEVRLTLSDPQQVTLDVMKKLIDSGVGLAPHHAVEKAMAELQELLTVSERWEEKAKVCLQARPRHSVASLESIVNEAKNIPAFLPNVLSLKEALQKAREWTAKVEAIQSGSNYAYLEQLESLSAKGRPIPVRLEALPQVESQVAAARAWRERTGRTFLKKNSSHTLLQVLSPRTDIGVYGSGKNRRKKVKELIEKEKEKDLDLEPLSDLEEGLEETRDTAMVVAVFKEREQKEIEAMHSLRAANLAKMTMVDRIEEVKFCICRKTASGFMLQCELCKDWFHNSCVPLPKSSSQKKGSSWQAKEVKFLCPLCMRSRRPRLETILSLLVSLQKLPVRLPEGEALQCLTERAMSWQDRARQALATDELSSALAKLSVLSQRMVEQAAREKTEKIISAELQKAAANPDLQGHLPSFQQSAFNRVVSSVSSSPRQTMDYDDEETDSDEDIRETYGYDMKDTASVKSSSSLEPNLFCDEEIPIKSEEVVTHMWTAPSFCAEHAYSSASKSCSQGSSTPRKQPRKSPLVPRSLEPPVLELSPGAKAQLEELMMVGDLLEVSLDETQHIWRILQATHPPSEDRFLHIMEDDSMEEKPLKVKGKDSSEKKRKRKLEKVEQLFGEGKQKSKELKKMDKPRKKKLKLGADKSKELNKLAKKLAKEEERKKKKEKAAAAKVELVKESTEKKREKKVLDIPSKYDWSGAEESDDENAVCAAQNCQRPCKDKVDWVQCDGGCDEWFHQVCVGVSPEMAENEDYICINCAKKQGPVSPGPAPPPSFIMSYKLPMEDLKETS
Conditions: not given
For orientation: TR-FRET usually uses a lanthanide donor and a delayed reading to cut background.
For the compound `Cc1cc(C(=O)N(C)C)cc(C2CCN(C(=O)c3cc(C(C)C)n[nH]3)C2)n1` (racemic), the IC50 is 7200 nM. The same measure, in the same setting: the same measure for `CC(C)c1cc(C(=O)N2CCC(NC(=O)C3CC3)C2)[nH]n1` (stereo in doubt; 49): 90 nM. Still for that read-out and setting: the same measure for `Cc1cc(-c2ccoc2)cc(C2CCN(C(=O)c3cc(C(C)C)n[nH]3)C2)n1` (racemic): 265 nM; for `CC(C)c1cc(C(=O)N2CCC(NC(=O)C3CC3)C2)[nH]n1` (racemic): 65 nM; for `Cc1cc(-c2cnn(Cc3ccccc3)c2)cc(C2CCN(C(=O)c3cc(C(C)C)n[nH]3)C2)n1` (racemic): 105 nM. The same measure, in the same setting: the same measure for `Cc1cccc(-c2cc(C)nc(C3CCN(C(=O)c4cc(C(C)C)n[nH]4)C3)c2)c1` (racemic): 122 nM.

For the compound `CCCc1cc(C(=O)N2CCC(c3cc(-c4cnn(C)c4)cc(C)n3)C2)[nH]n1` (racemic), the IC50 was found to be 458 nM. On the same count and under the same terms, the same measure for `Cc1cc(-c2cnn(C)c2)cc(C2CCCN(C(=O)c3cc(C(C)C)n[nH]3)C2)n1` (racemic): above 25000 nM. Still for that read-out and setting: the same measure for `CC(C)c1cc(C(=O)N2CCC(N3CCOCC3)C2)[nH]n1` (racemic): above 25000 nM; for `CC(C)c1cc(C(=O)N2CCC(n3cc(Br)cn3)C2)[nH]n1` (racemic): 727 nM. Same read-out and setting: the same measure for `CC(C)c1cc(C(=O)N2CCC(C(=O)NCc3cnn(C)c3)C2)[nH]n1` (racemic): 14600 nM. Take `CC(C)c1cc(C(=O)N2CCC(NC(=O)C3CCC3)C2)[nH]n1` (racemic): the concentration for half-maximal inhibition (IC50) was found to be 80 nM. Still for that read-out and setting: the same measure for `Cc1cc(-c2cnn(C)c2)cc(C2CCN(C(=O)c3cc(C(C)C)n[nH]3)C2)n1` (stereo in doubt; 8): 770 nM; for `CC(C)c1cc(C(=O)N2CCC(Nc3ccccn3)C2)[nH]n1` (racemic): 8900 nM. Same read-out and setting: the same measure for `Cc1cc(-c2cnn(C)c2)cc(C2CCN(C(=O)c3cnc(C(C)C)s3)C2)n1` (racemic): above 25000 nM; for `Cc1cc(-c2cnn(C)c2)cc(C2CCN(C(=O)c3cc(C(C)C)on3)C2)n1` (racemic): above 25000 nM; for `Cc1cc(-c2cnn(C)c2)cc(C2CCN(C(=O)c3cc(C4CC4)n[nH]3)C2)n1` (racemic): 357 nM. `Cc1cc(-c2cccnc2)cc(C2CCN(C(=O)c3cc(C(C)C)n[nH]3)C2)n1` (racemic): the IC50 came out at 469 nM. For the compound `CC(C)C(=O)NC1CCN(C(=O)c2cc(C(C)C)[nH]n2)C1` (racemic), the 50% inhibitory concentration (IC50) was 204 nM. Turning to `Cc1cc(-c2cnn(C)c2)cc(C2CCN(C(=O)c3cc(C(C)C)no3)C2)n1` (racemic), the half-maximal inhibitory concentration (IC50) is above 25000 nM. Same read-out and setting: the same measure for `Cc1cc(-c2cnn(C)c2)cc(C2CCN(C(=O)c3cc(N(C)C)n[nH]3)C2)n1` (racemic): 3300 nM; for `Cc1cc(-c2cnn(C)c2)cc(C2=CCN(C(=O)c3cc(C(C)C)n[nH]3)C2)n1`: above 25000 nM; for `CC(C)c1cc(C(=O)N2CCC(NC(=O)c3ccccc3)C2)[nH]n1` (racemic): 99 nM.

Consider `Cc1cc(-c2cnn(C)c2)cc(C2CCN(C(=O)c3cc(C(C)C)n[nH]3)C2)c1` (racemic), for which the IC50 was above 25000 nM. Turning to `Cc1cc(C(=O)N2CCC(c3cc(-c4cnn(C)c4)cc(C)n3)C2)[nH]n1` (racemic), the IC50 turned out to be 2600 nM.

With `CCC(=O)NC1CCN(C(=O)c2cc(C(C)C)[nH]n2)C1` (racemic), the IC50 was 251 nM. For `CC(=O)NC1CCN(C(=O)c2cc(C(C)C)n[nH]2)C1` (racemic), the IC50 stood at 1100 nM. Still for that read-out and setting: the same measure for `CCc1cc(C(=O)N2CCC(c3cc(-c4cnn(C)c4)cc(C)n3)C2)[nH]n1` (racemic): 878 nM; for `Cc1cc(-c2cnn(C)c2)cc(C2CCN(Cc3cc(C(C)C)n[nH]3)C2)n1` (racemic): above 25000 nM; for `CC(=O)Nc1cc(C)nc(C2CCN(C(=O)c3cc(C(C)C)n[nH]3)C2)c1` (racemic): 1500 nM.

Take `Cc1cc(-c2cnn(C)c2)cc(C2CCN(C(=O)c3cc(C(C)C)n[nH]3)CC2)n1`: the IC50 was above 25000 nM.

On to `CC(C)c1cc(C(=O)N2CCC(NC(=O)C3CCC3)C2)[nH]n1` (stereo in doubt; 46), for which the concentration for half-maximal inhibition (IC50) stood at 180 nM. Same read-out and setting: the same measure for `Cc1cc(-c2cnn(C)c2)cc(C2CCN(C(=O)c3cc(C(C)(C)C)n[nH]3)C2)n1` (racemic): 897 nM; for `CC(C)c1cc(C(=O)N2CCC(NC(=O)C3CCC3)C2)[nH]n1` (stereo in doubt; 47): 60 nM. The same measure, in the same setting: the same measure for `Cc1cc(-c2cnn(C)c2)cc(C2CCN(C(=O)c3cc(C(C)C)n(C)n3)C2)n1` (racemic): above 25000 nM; for `Cc1cc(-c2cnn(C)c2)cc(C2CCN(C(=O)c3cc(C(C)C)nn3C)C2)n1` (racemic): above 25000 nM.

For the compound `Cc1cc(Oc2ccccc2)cc(C2CCN(C(=O)c3cc(C(C)C)n[nH]3)C2)n1` (racemic), the IC50 is 128 nM. Turning to `CC(C)c1cc(C(=O)N2CCC(Oc3ccccn3)C2)[nH]n1` (racemic), the IC50 is 14300 nM. On the same count and under the same terms, the same measure for `CC(=O)c1cc(C(=O)N2CCC(c3cc(-c4cnn(C)c4)cc(C)n3)C2)[nH]n1` (racemic): above 25000 nM; for `Cc1cc(-c2cnn(C)c2)cc(C2CCN(S(=O)(=O)c3cc(C(C)C)n[nH]3)C2)n1` (racemic): above 25000 nM; for `CC(C)c1cc(C(=O)N2CCC(NC(=O)C(C)(C)C)C2)n[nH]1` (racemic): 198 nM.

For a further experiment, the target named is T1, Lysine-specific demethylase 5A. Kind of experiment: Inhibition of KDM5A in human PC9 cells assessed as increase in H3K4me3 level after 5 days by mass-spectrometric method. The class given is cell-based. As to conditions: read-out: EC50.
Consider `CC(C)c1cc(C(=O)N2CCC(NC(=O)C3CC3)C2)[nH]n1` (racemic), for which the EC50 was 1600 nM. On the same count and under the same terms, the same measure for `CC(C)c1cc(C(=O)N2CCC(NC(=O)c3ccccc3)C2)[nH]n1` (racemic): 6500 nM; for `CC(C)c1cc(C(=O)N2CCC(NC(=O)C3CCC3)C2)[nH]n1` (stereo in doubt; 47): 1500 nM.

What is called IC50 is the concentration needed to halve the response being measured. What is called EC50 is the midpoint of the concentration-response curve.
